Test results published in patent US8017637B2, “Inhibitors of cdc phosphatases” (Ipsen Pharma S.A.S., priority 2004, dated 2011).

Assays:
[1] = biological target: T1, purified recombinant enzyme Cdc25-C (MBP-Cdc25C) (Homo sapiens, UniProt P30307); test: Measurement of the phosphatase activity of the purified recombinant enzyme Cdc25C (OMFP dephosphorylation, fluorescence); format: biochemical; conditions: OMFP 500 μM, 4 hours at 30° C.
T1 construct: made in house
T1 sequence (P30307 1-473): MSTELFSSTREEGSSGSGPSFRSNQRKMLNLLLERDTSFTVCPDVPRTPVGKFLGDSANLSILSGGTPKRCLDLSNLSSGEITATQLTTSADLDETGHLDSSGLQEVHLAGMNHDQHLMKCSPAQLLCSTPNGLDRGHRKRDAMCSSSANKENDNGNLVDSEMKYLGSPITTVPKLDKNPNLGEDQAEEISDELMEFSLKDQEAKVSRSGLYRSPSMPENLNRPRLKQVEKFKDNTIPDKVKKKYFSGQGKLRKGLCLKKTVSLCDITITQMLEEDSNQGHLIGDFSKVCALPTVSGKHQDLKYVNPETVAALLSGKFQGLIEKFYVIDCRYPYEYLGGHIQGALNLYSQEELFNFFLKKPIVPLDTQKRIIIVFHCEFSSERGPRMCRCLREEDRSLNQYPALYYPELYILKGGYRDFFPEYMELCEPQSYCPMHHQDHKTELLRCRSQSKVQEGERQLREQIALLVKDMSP
Procedure: i) Measurement of the Phosphatase Activity of the Purified Recombinant Enzyme Cdc25C
The phosphatase activity of the protein MBP-Cdc25C is evaluated by the dephosphorylation of 3-O-methylfluorescein-phosphate (OMFP) to 3-O-methylfluorescein (OMF) with a determination of the fluorescence at 475 nm of the reaction product. This test makes it possible to identify inhibitors of the recombinant enzyme cdc25. The preparation of the fusion protein MBP-Cdc25C is described in the Patent Application PCT WO 01/44467.
The reaction is carried out in 384-well plate format at a final volume of 50 μl. The protein MBP-Cdc25C (prepared as described above) is preserved in the following elution buffer: 20 mM Tris-HCl pH 7.4; 250 mM NaCl; 1 mM EDTA; 1 mM of dithiothreitol (DTT); 10 mM maltose. It is diluted to a concentration of 60 μM in the following reaction buffer: 50 mM Tris-HCl pH 8.2; 50 mM NaCl; 1 mM DTT; 20% glycerol. Measurement of the background noise is carried out with the buffer without the addition of the enzyme. The products are tested at decreasing concentrations starting from 40 μM. The reaction is initiated by the addition of an OMFP solution at 500 μM final (prepared extemporaneously from a 12.5 mM stock solution in 100% DMSO (Sigma #M2629)). After 4 hours at 30° C. in a single-use 384-well plate, the fluorescence measured at OD 475 nm is read using a Victor^2 plate reader (EGG-Wallac). The determination of the concentration inhibiting the enzyme reaction by 50% is calculated from three independent experiments. Only the values contained in the linear part of the sigmoid are retained for linear regression analysis.

[2] = test system: Mia-Paca2 lines (human pancreatic cancer cells); test: Anti-proliferative activity, WST1 colorimetric test, Mia-Paca2 cells; format: cell-based; conditions: MIA PaCa-2, 96 hours treatment, up to 10 μM, read-out: IC50 on the cell proliferation of the Mia-Paca2 lines
Procedure: (§1) ii) Characterization of Anti-Proliferative Activity:
(§2) By way of example, the effect of a treatment by the compounds of the examples described previously on two lines of human Mia-Paca2 and DU145 cells will be studied. The cell lines DU145 (human prostate cancer cells) and Mia-PaCa2 (human pancreatic cancer cells) were acquired from the American Tissue Culture Collection (Rockville, Md., USA). The cells placed in 80 μl of Dulbecco's Modified Eagle medium (Gibco-Brl, Cergy-Pontoise, France) completed with 10% foetal calf serum inactivated by heating (Gibco-Brl, Cergy-Pontoise, France), 50,000 units/l of penicillin and 50 mg/l streptomycin (Gibco-Brl, Cergy-Pontoise, France), and 2 mM of glutamine (Gibco-Brl, Cergy-Pontoise, France) were seeded on a 96-well plate on day 0. The cells were treated on day 1 for 96 hours at increasing concentrations of each of the compounds to be tested up to 10 μM. At the end of the of this period, quantification of the cell proliferation is evaluated by a colorimetric test based on the cleavage of the tetrazolium salt WST1 by the mitochondrial dehydrogenases in the viable cells leading to the formation of formazan (Boehringer Mannheim, Meylan, France). These tests are carried out in duplicate with 8 determinations per concentration tested. For each compound to be tested, the values included in the linear part of the sigmoid were retained for linear regression analysis and used in order to estimate the inhibitory concentration IC50. The products are solubilized in dimethylsulphoxide (DMSO) at to 10^−2M and finally used in culture with 0.1% DMSO.

[3] = test system: DU-145 lines (human prostate cancer cells); test: Anti-proliferative activity, WST1 colorimetric test, DU145 cells; format: cell-based; conditions: 96 hours treatment, up to 10 μM, read-out: IC50 on the cell proliferation of the DU-145 lines
Procedure: as §1, §2

SMILES	IC50 [1] [µM]	IC50 [2] [µM]	IC50 [3] [µM]	melting point [°C]
COc1ccc(NC(=O)c2nc3c(s2)C(=O)C=C(NCCCN(C)CCCNC2=CC(=O)c4sc(C)nc4C2=O)C3=O)cc1 [Example 41, N-(4-methoxyphenyl)-5-{[3-(methyl{3-[(2-methyl-4,7-dioxo-4,7-dihydro-1,3-benzothiazol-5-yl)amino]propyl}amino)propyl]amino}-4,7-dioxo-4,7-dihydro-1,3-benzothiazole-2-carboxamide]	≤ 1	≤ 10	≤ 10	141 to 142
Cc1nc2c(s1)C(=O)C(NCCCN(C)CCCNC1=CC(=O)c3sc(C(=O)N4CCN(C(=O)C5CCCO5)CC4)nc3C1=O)=CC2=O (stereo not drawn) [Example 42, 5-{[3-(methyl{3-[(2-methyl-4,7-dioxo-4,7-dihydro-1,3-benzothiazol-6-yl)amino]propyl}amino)propyl]amino}-2-{[4-(tetrahydrofuran-2-ylcarbonyl)piperazin-1-yl]carbonyl}-1,3-benzothiazole-4,7-dione]	≤ 1	≤ 10	≤ 10	121 to 122
CCNC(=O)c1nc2c(s1)C(=O)C=C(NCCCN(C)CCCNC1=CC(=O)c3sc(C)nc3C1=O)C2=O [Example 43, N-ethyl-5-{[3-(methyl{3-[(2-methyl-4,7-dioxo-4,7-dihydro-1,3-benzothiazol-5-yl)amino]propyl}amino)propyl]amino}-4,7-dioxo-4,7-dihydro-1,3-benzothiazole-2-carboxamide]	≤ 1	≤ 10	≤ 10	107 to 108
